“Also recorded” adds a separate entry of the source. Where two headings read alike, the source gives them in different places.
Key:
[1] = tested on: tumors with activating EGFR mutations or the Alk translocation; conditions: monotherapy; non-squamous patients with activating EGFR mutations or Alk translocation; cited from earlier work
[2] = tested on: NSCLC after fast progression on first-line platinum doublet chemotherapy; conditions: TITAN; fast progressing patients who failed during 1st line platinum containing therapy; cited from earlier work
FaDu = experiment: in vivo anti-tumor efficacy, xenograft model FaDu (head and neck); conditions: 100 mg/kg/d
SKOV3 = experiment: in vivo anti-tumor efficacy, xenograft model SKOV3 (ovarian); conditions: 50 mg/kg/d
Calu-6 = experiment: in vivo anti-tumor efficacy, xenograft model Calu-6 (lung, non-small-cell); conditions: 50 mg/kg/d
GS-9L syngeneic rat = experiment: in vivo anti-tumor efficacy, syngeneic rat tumor model GS-9L (glioblastoma); conditions: 50 mg/kg/d
Caki-1 = experiment: in vivo anti-tumor efficacy, xenograft model Caki-1 (renal); conditions: 100 mg/kg/d
NSCLC = experiment: clinical trial evidence as summarised (progression within 9 months or less after initiation of prior treatment); format: in vivo, human
[3] = tested on: locally advanced/metastatic NSCLC; experiment: Phase 3 clinical study LUME LUNG 1 (nintedanib+docetaxel vs placebo+docetaxel); format: in vivo, human
From the text: LUME LUNG 1 is a placebo-controlled phase 3 trial investigating nintedanib+docetaxel in patients with locally advanced/metastatic NSCLC progressing after one prior combination regimen.
(§1) In the case of a significant interaction between treatment and a continuous variable, not only the categorisation delivered by the recursive partitioning was investigated but hazard ratios HR (treatment effect) were also globally estimated at different values of the interacting covariate.
(§2) Kaplan-Meier plots and Forrest Plots were further used for the graphical presentation of the results.

advanced NSCLC tumours = experiment: Phase 3 clinical study LUME LUNG 2 (nintedanib+pemetrexed vs placebo+pemetrexed); format: in vivo, human
From the text: Continuation until Progressive Disease (PD) or unacceptable toxicity with nintedanib, placebo, pemetrexed, or a combination thereof, was permitted. […] Primary endpoint was centrally assessed PFS. Secondary endpoints included OS, investigator-assessed PFS, Response Rate (RR), safety, and Quality of Life (QoL). Stepwise selection, using Cox proportional hazards modeling and a recursive partitioning tree, identified baseline variables prognostic for PFS in Arm B (placebo) of LUME LUNG 2. […] These methods were applied to the LUME LUNG 2 Data Monitoring Committee (DMC) dataset, to develop a hypothesis that was tested and validated by three steps: (i) internal confirmation using centrally assessed PFS and internal validation using OS data of the clinical trial LL2; (ii) external validation using the data from the primary analysis of the independent clinical trial LL1 (centrally assessed PFS and internal validation using OS data); and (iii) external validation using the final OS data of the clinical trial LL1.
as §1, §2

Rip-Tag = experiment: in vivo anti-tumor efficacy, Rip-Tag model (pancreas, murine transgenic)
PAC-120 = experiment: in vivo anti-tumor efficacy, xenograft model PAC-120 (prostate, hormone-dependent); conditions: 100 mg/kg/d
HT-29 = experiment: in vivo anti-tumor efficacy, xenograft model HT-29 (colorectal)
NCI-H460 = experiment: in vivo anti-tumor efficacy, xenograft model NCI-H460 (lung, non-small-cell); conditions: 25 mg/kg/d
[4] = LL1 squamous cell tumour histology
[5] = LL1 squamous cell, large tumour burden

C#Cc1cccc(Nc2ncnc3cc(OCCOC)c(OCCOC)cc23)c1 [erlotinib]
OS improvement [1]: no OS improvements have been observed
median PFS [1]: around 20 months
efficacy in PFS and OS compared to docetaxel or pemetrexed [2]: did not show any superior efficacy

COC(=O)c1ccc2c(c1)NC(=O)/C2=C(\Nc1ccc(N(C)C(=O)CN2CCN(C)CC2)cc1)c1ccccc1 [nintedanib, 3-Z-[1-(4-(N-((4-methyl-piperazin-1-yl)-methylcarbonyl)-N-methyl-amino)-anilino)-1-phenyl-methylene]-6-methoxycarbonyl-2-indolinone]
T/C (reduction of tumor size in % of the control) (FaDu): T/C 11% @ 100 mg/kg/d
T/C (reduction of tumor size in % of the control) (SKOV3): T/C 19% @ 50 mg/kg/d
T/C (reduction of tumor size in % of the control) (Calu-6): T/C 24% @ 50 mg/kg/d
T/C (reduction of tumor size in % of the control) (GS-9L syngeneic rat): T/C 32% @ 50 mg/kg/d
T/C (reduction of tumor size in % of the control) (Caki-1): T/C 13% @ 100 mg/kg/d
improvement in the median of both PFS and OS compared to placebo (NSCLC): superior or equal to one month
improvement in the median of both PFS and OS compared to placebo (NSCLC; adenocarcinoma NSCLC): ≥ 1.3 months
HR (OS) ([3]; LL1 adenocarcinoma): 0.83
HR (PFS) ([3]; LL1 adenocarcinoma): 0.84
benefit in fast progressing population with cut-off of 4 or 6 months ([3]; LL1 adenocarcinoma, t<4 mo or t<6 mo): confirmed
HR (OS) ([3]; LL1 adenocarcinoma, t<9 mo): 0.75
HR (PFS) ([3]; LL1 adenocarcinoma, t<9 mo): 0.68
HR (OS) ([3]; LL1 all NSCLC patients): 0.94
HR (PFS) ([3]; LL1 all NSCLC patients): 0.85
HR (OS) [3, 4]: 1.01
HR (PFS) [3, 4]: 0.83
Improvement of median OS of nintedanib versus placebo [3, 4]: No benefit; also recorded: None (OS)
HR (OS) [3, 5]: 0.82
HR (PFS) [3, 5]: 0.71
Improvement of median PFS of nintedanib versus placebo [3, 5]: 0.9 months (PFS)
median PFS ([3]; LL1 whole NSCLC patient population, centrally assessed): 3.5 months
safety (advanced NSCLC tumours; LL2): no safety issues were identified
median PFS (advanced NSCLC tumours; LL2 ITT analysis, centrally reviewed PFS): 4.4 months
Disease control (advanced NSCLC tumours; LL2 ITT, versus placebo): significantly improved
HR (OS) (advanced NSCLC tumours; LL2 adenocarcinoma, t<9 mo): 0.87
HR (PFS) (advanced NSCLC tumours; LL2 adenocarcinoma, t<9 mo): 0.79
HR (OS) (advanced NSCLC tumours; LL2 all): 1.01
HR (PFS) (advanced NSCLC tumours; LL2 all): 0.84
Improvement of median OS of nintedanib versus placebo (advanced NSCLC tumours; LL2 all): No difference; also recorded: None (OS)
median improvement of time to deterioration of cough (advanced NSCLC tumours; LL2 fast progressing patients, nintedanib versus placebo): 3.7 months
median OS (advanced NSCLC tumours; LL2 t<9 mo patient population): 10.6 months
median PFS (advanced NSCLC tumours; LL2 t<9 mo patient population): 4.1 months
Efficacy (Rip-Tag): interference with tumor
T/C (reduction of tumor size in % of the control) (PAC-120): T/C 34% @ 100 mg/kg/d
T/C (reduction of tumor size in % of the control) (HT-29; HT-29, 100 mg/kg/d): T/C 16% @ 100 mg/kg/d
Efficacy (HT-29; HT-29 large tumors): tumor volume reduction
T/C (reduction of tumor size in % of the control) (NCI-H460): T/C 54% @ 25 mg/kg/d
